What was measured:
[1] = tested on: primary cultures of retinal pigment epithelium (RPE) of adult pigs; experiment: In vitro assay of the photoprotective activity: phototoxicity induced by A2E and blue light, cell survival; assay type: cell-based, pig; conditions: for viability at 20 µM / viability at 5 µM: Sus scrofa; for viability at 20 µM / viability at 5 µM / Cell survival: A2E 30 μM, blue light 470 nm 50 min, survival after 24 h, living cells vs control wells without A2E x100, A2E controls without molecule 39.7±3.7
Method: A cell model of phototoxicity induced by the association of a treatment by the A2E and of an illumination by blue light on primary cultures of RPE, wherein cell survival was measured, was used. This model uses primary cultures of retinal pigment epithelium of adult pigs.
This model makes it possible in particular to carry out the screening of molecules aimed at the discovery of new candidates for a treatment of the dry form of AMD. This model is closer to the “physiological” situation than the cell lines commonly used in literature, because the cells used contain protective substances provided by the diet of the animal and are therefore not in a situation of “deficiency”, and their disturbance is caused by the adding of A2E into the culture medium.
The cell cultivated in 96-well plates were treated for 48 hours with the compounds to be tested (in a 5 mM solution in the DMSO) in such a way as to obtain final concentrations of 5 or 20 μM), of which the last 19 hours in the presence of A2E (final concentration 30 μM). […] Cell survival is measured after 24 hours.
Cell survival and death are detected 24 hours after the induction of the phototoxicity by colouration of the cells with Hoechst (a nuclear marker) and with ethidium (a marker of the nuclei of dead cells). Images of each well are acquired on a fluorescent microscope equipped with a motorised stage controlled by the Metamorph software, and cell survival is quantified by a dedicated quantification program. The experiments are conducted on 96-well microplates in quadruplicate and each experiment is reproduced at least four times.
The results are expressed in the form of a ratio representing the number of living cells in the wells treated by the molecules to be tested divided by the number of living cells in the control wells (treated with the dilution medium without A2E) and multiplied by 100.

[2] = tested on: genetically modified mouse model (ABCA4 and Rdh8 inactivated); experiment: In vivo assay of the photoprotective activity in mice (blue light exposure after intravitreal injection); conditions: unilateral intravitreal injection, 100-130 μM in the vitreous, blue light 4000 lux 1 h
Excerpt: A genetically modified mouse model developed by Maeda et al. (Invest Ophthalmol. Vis. Sci., 2009, 50, 4917-4925) was used to test the photoprotective activity of the compounds of the invention.
In this mouse model, two genes involved in the visual pigment cycle (ABCA4 and Rdh8, see FIG. 1) are inactivated, which results in an early accumulation of A2E in the eyes. This animal model is therefore representative of the human pathology.
Mice aged 7 weeks were used to carry out the unilateral intravitreal injections of solubilised diosmetinidin ([…]) in DMSO and diluted in PBS (1.2:100), in order to obtain a concentration in the vitreous of 100-130 μM. DMSO diluted in the PBS was injected into the control animals. After 24 h in the dark, the mice were subjected to an exposure to blue light (4000 lux, 1 h).

[3] = tested on: RPE cells; conditions: literature, in words; cited from earlier work
[4] = tested on: RPE cells; conditions: literature, in words; cited from earlier work; remark: listed apart in the source

Row | Compound | viability at 20 µM ([1]; 20 μM compound for 48 h) [%] | Cell survival ([1]; 20 μM compound for 48 h) [%] | also measured
1 | COc1ccc(-c2ccc3ccc(OC)cc3[o+]2)c(O)c1 | 39.2 ± 7.4 |  | 
2 | COc1ccc2ccc(-c3ccc(OC)c(OC)c3)[o+]c2c1 | 48.7 ± 5.5 |  | 
3 | COc1ccc(-c2ccc3ccc(O)cc3[o+]2)cc1OC | 46.1 ± 4.7 |  | 
4 | COc1ccc(-c2ccc3ccc(O)cc3[o+]2)c(O)c1 [Compound 1, 2′,7-dihydroxy-4′-methoxy-flavylium chloride] | 89.9 ± 4.9 |  | 
5 | COc1ccc(-c2ccc3ccc(O)cc3[o+]2)c(O)c1O [Compound 2, 2′,3′,7-trihydroxy-4′-methoxy-flavylium chloride] | 86.7 ± 2.3 |  | 
6 | COc1ccc(-c2ccc3ccc(O)cc3[o+]2)cc1O [Compound 3, 3′,7-dihydroxy-4′-methoxy-flavylium chloride] | 77 ± 2.7 |  | 
7 | Oc1ccc(-c2ccc3c(O)cc(O)cc3[o+]2)cc1 [Compound 4, 4′,5,7-trihydroxy-flavylium chloride (apigeninidin)] | 89.5 ± 3.5 |  | viability at 5 µM ([1]; 5 μM compound for 48 h): 71 ± 3.6%
8 | COc1ccc(-c2ccc3c(O)cc(O)cc3[o+]2)cc1O.[Cl-] [Compound 5, 3′,5,7-trihydroxy-4′-methoxy-flavylium chloride (diosmetinidin)] | 90.8 ± 3.6 |  | viability at 5 µM ([1]; 5 μM compound for 48 h): 84.5 ± 1.4%; electroretinograms (wave A, wave B electrical activity) ([2]; 7 days later): protective effect; survival of the photoreceptors (number of layers of photoreceptors) ([2]; FIG. 4): good survival
9 | Oc1cc(O)c2ccc(-c3cc(O)c(O)c(O)c3)[o+]c2c1 [Compound 6, 3′,4′,5′,5,7-pentadroxy-flavylium chloride (tricetinidin)] | 99.3 ± 3.3 |  | viability at 5 µM ([1]; 5 μM compound for 48 h): 74.9 ± 4.2%
10 | Oc1cc(O)c2ccc(-c3ccc(O)c(O)c3)[o+]c2c1 [Compound 7, 3′,4′,5,7-tetrahydroxy-flavylium chloride (luteolinidin)] | 93.6 ± 6.7 |  | viability at 5 µM ([1]; 5 μM compound for 48 h): 72 ± 4.4%
11 | Oc1cc(O)c2cc(O)c(-c3ccc(O)c(O)c3)[o+]c2c1 [Cyanidin, cyanidin] |  | 92.9 ± 1.9 | Cell survival ([1]; 5 μM compound for 48 h): 56.4 ± 8.8%; photoprotector effect ([1]; at 20 μM, in words): substantial photoprotector effect; effectiveness of the photoprotection ([1]; at a lower concentration (5 μM), in words): substantially reduced; photoprotective effect on the RPE cells [3]: photoprotective effect; effectiveness for cell survival of the RPE cells [4]: ineffectiveness
12 | Oc1cc(O)c2cc(O)c(-c3cc(O)c(O)c(O)c3)[o+]c2c1 [Delphinidin, delphinidin] |  | 57.8 ± 5.6 | Cell survival ([1]; 5 μM compound for 48 h): 40.5 ± 6.2%; photoprotective effect on the RPE cells [3]: photoprotective effect; effectiveness for cell survival of the RPE cells [4]: ineffectiveness
13 | Oc1ccc2cc(O)c(-c3ccc(O)c(O)c3)[o+]c2c1 [Fisetinidin, fisetinidin] |  | 39.3 ± 3.2 | 
14 | Oc1ccc(-c2ccc3c(O)cc(O)c(O)c3[o+]2)cc1O [Gossypetinidin, gossypetinidin] |  | 36.5 ± 14.4 | 
15 | COc1cc(-c2[o+]c3cc(O)cc(O)c3cc2O)cc(OC)c1O.[Cl-] [Malvidin, malvidin] |  | 51.5 ± 6.9 | photoprotective effect on the RPE cells [3]: contrary; effectiveness for cell survival of the RPE cells [4]: ineffectiveness
16 | COc1cc(-c2[o+]c3cc(O)cc(O)c3cc2O)cc(O)c1O [Petunidin, petunidin] |  | 67.2 ± 6.9 | effectiveness for cell survival of the RPE cells [4]: ineffectiveness
17 | Oc1ccc(-c2[o+]c3cc(O)c(O)c(O)c3cc2O)cc1O [Quercetagetinidin, quercetagetinidin] |  | 54.3 ± 6.6 | 
18 | guibourtinidin |  | 42.8 ± 6.9 | 

Reference: patent US10513503B2, “Use of 3-deoxyanthocyanidins for treating occular diseases” (BIOPHYTIS, priority 2015, dated 2019)
